Laboratory results: US20240116985A1, “STAPLED PEPTIDES AND METHODS THEREOF” (priority 2020, published 2024)
In brackets after ≈: the same amount, converted by molar mass. Where two headings read alike, the source gives them in different places.

Key:
[1] = molecular target: T1, full-length beta-Catenin (Uniprot ID P35222) (Homo sapiens, UniProt P35222); test: Fluorescence polarization IC50 (beta-catenin / 5FAM-TCF4 10-53 competition); assay type: binding; settings: fluorescence polarization
T1 construct: 10 nM full-length beta-Catenin (Uniprot ID P35222)
T1 sequence (P35222 1-781): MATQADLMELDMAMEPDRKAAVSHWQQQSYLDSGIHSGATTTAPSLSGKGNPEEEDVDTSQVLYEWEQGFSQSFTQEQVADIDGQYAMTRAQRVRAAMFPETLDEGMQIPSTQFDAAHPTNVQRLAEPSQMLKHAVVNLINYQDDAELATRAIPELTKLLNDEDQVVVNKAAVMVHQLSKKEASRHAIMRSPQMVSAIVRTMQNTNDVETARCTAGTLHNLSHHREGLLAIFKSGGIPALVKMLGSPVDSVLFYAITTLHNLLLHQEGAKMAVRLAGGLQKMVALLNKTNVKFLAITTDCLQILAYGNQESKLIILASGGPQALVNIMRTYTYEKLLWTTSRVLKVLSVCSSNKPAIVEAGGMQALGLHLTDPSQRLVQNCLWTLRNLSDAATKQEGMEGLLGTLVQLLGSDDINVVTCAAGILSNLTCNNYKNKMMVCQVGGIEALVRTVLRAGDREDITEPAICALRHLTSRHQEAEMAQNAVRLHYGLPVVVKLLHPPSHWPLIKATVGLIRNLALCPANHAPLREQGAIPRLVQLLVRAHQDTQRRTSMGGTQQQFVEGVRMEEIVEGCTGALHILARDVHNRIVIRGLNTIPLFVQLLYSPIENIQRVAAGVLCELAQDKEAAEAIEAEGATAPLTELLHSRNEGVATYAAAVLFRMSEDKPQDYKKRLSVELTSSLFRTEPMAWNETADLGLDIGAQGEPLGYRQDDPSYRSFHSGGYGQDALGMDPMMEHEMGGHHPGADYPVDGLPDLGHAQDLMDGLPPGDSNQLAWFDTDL

Solubility in PBS = assay type: physicochemical
Summary of the method: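 PBS sample ultracentrifuged; supernatant run on HPLC vs. 50 μM peptide in DMSO standard. Solubility = (PBS peak area / DMSO peak area) × 50 uM.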

[2] = beta-catenin, read-out: FP EC50

| Compound | IC50 ([1]; read-out: beta-Catenin FP IC50) | Solubility (Solubility in PBS; Solubility (uM)) | Solubility (Solubility in PBS) | IC50 [1, 2] |
| --- | --- | --- | --- | --- |
| CC(=O)N1CCC[C@]12CC=CCCCC1(CCCC=CCCCOC(=O)N3CC[C@@](C(=O)N[C@@H](Cc4ccsc4)C(=O)N[C@@H](Cc4csc5ccccc45)C(=O)N[C@@H](CCC(N)=O)C(N)=O)(C3)NC(=O)[C@H](CC(C)C)NC(=O)[C@H](Cc3ccccc3)NC(=O)[C@H](C)NC(=O)[C@H](C)NC(=O)[C@H](CC(=O)O)NC(=O)[C@H](CO)NC1=O)NC(=O)[C@H](CC(C)(C)C)NC(=O)[C@H](CC(=O)O)NC2=O (stereo partly drawn) [I-1209, Ac-PL3-Asp-Npg-B5-Ser-Asp-Ala-Ala-Phe-Leu-PyrS2-3Thi-BztA-Gln-NH2] | 479 nM | 16 µM (≈ 30.2 µg/mL) | – | – |
| CC(=O)N1CCC[C@]12CC=CCCCC1(CCCC=CCCCOC(=O)N3CC[C@@](C(=O)N[C@@H](Cc4ccsc4)C(=O)N[C@@H](Cc4csc5ccccc45)C(=O)N[C@@H](CCC(N)=O)C(N)=O)(C3)NC(=O)[C@H](CC(N)=O)NC(=O)[C@H](Cc3ccccc3)NC(=O)[C@H](C)NC(=O)[C@H](C)NC(=O)[C@H](CC(=O)O)NC(=O)[C@H](CCC(N)=O)NC1=O)NC(=O)[C@H](CC(C)(C)C)NC(=O)[C@H](CC(=O)O)NC2=O (stereo partly drawn) [I-1210, Ac-PL3-Asp-Npg-B5-Gln-Asp-Ala-Ala-Phe-Asn-PyrS2-3Thi-BztA-Gln-NH2] | 56 nM | – | 50 µM (≈ 96.6 µg/mL) | – |
| CC(=O)N1CCC[C@]12CC=CCCCC1(CCCC=CCCCOC(=O)N3CC[C@@](C(=O)N[C@@H](Cc4ccsc4)C(=O)N[C@@H](Cc4csc5ccccc45)C(=O)N[C@@H](CCC(N)=O)C(N)=O)(C3)NC(=O)[C@H](CC(C)C)NC(=O)[C@H](Cc3ccccc3)NC(=O)[C@H](C)NC(=O)[C@H](C)NC(=O)[C@H](CC(=O)O)NC(=O)[C@H](CCC(N)=O)NC1=O)NC(=O)[C@H](CC(C)(C)C)NC(=O)[C@H](CC(=O)O)NC2=O (stereo partly drawn) [I-1211, Ac-PL3-Asp-Npg-B5-Gln-Asp-Ala-Ala-Phe-Leu-PyrS2-3Thi-BztA-Gln-NH2] | 115 nM | 11 µM (≈ 21.2 µg/mL) | – | – |
| CC(=O)N1CCC[C@]12CC=CCCCC1(CCCC=CCCCOC(=O)N3CC[C@@](C(=O)N[C@@H](Cc4ccsc4)C(=O)N[C@@H](Cc4csc5ccccc45)C(=O)N[C@@H](CCC(N)=O)C(N)=O)(C3)NC(=O)[C@H](CC(N)=O)NC(=O)[C@H](Cc3ccccc3)NC(=O)[C@H](C)NC(=O)[C@H](C)NC(=O)[C@H](CC(=O)O)NC(=O)[C@H](CCO)NC1=O)NC(=O)[C@H](CC(C)(C)C)NC(=O)[C@H](CC(=O)O)NC2=O (stereo partly drawn) [I-1214, Ac-PL3-Asp-Npg-B5-Hse-Asp-Ala-Ala-Phe-Asn-PyrS2-3Thi-BztA-Gln-NH2] | 116 nM | – | 50 µM (≈ 95.2 µg/mL) | – |
| CC(=O)N1CCC[C@]12CC=CCCCC1(CCCC=CCCCOC(=O)N3CC[C@@](C(=O)N[C@@H](Cc4ccsc4)C(=O)N[C@@H](Cc4csc5ccccc45)C(=O)N[C@@H](CCC(N)=O)C(N)=O)(C3)NC(=O)[C@H](CC(C)C)NC(=O)[C@H](Cc3ccccc3)NC(=O)[C@H](C)NC(=O)[C@H](C)NC(=O)[C@H](CC(=O)O)NC(=O)[C@H](CCO)NC1=O)NC(=O)[C@H](CC(C)(C)C)NC(=O)[C@H](CC(=O)O)NC2=O (stereo partly drawn) [I-1215, Ac-PL3-Asp-Npg-B5-Hse-Asp-Ala-Ala-Phe-Leu-PyrS2-3Thi-BztA-Gln-NH2] | 216 nM | – | 10 µM (≈ 19 µg/mL) | – |
| CCCCCCCC(=O)N1CCC[C@]12CC=CCCCC1(CCCC=CCCCOC(=O)N3CC[C@@](C(=O)N[C@@H](Cc4ccccc4Cl)C(=O)N[C@@H](Cc4csc5ccccc45)C(=O)N[C@@H](C(N)=O)[C@H](C)O)(C3)NC(=O)[C@H](CC(N)=O)NC(=O)[C@H](Cc3ccccc3)NC(=O)[C@H](C)NC(=O)[C@H](C)NC(=O)[C@H](CC(=O)O)NC(=O)[C@H](CC(=O)O)NC1=O)NC(=O)[C@H](CC(C)(C)C)NC(=O)[C@H](CC(=O)O)NC2=O (stereo partly drawn) [I-1252, Oct-PL3-Asp-Npg-B5-Asp-Asp-Ala-Ala-Phe-Asn-PyrS2-2C1F-BztA-dThr-NH2] | 546 nM | 44 µM (≈ 88.2 µg/mL) | – | – |
| CC(=O)N1CCC[C@]12CC=CCCCC1(CCCC=CCCCCCCCC[C@@](C)(C(=O)N[C@@H](Cc3ccccc3Cl)C(=O)N[C@@H](Cc3csc4ccccc34)C(=O)N[C@H](C(N)=O)[C@@H](C)O)NC(=O)[C@H]([C@@H](C)O)NC(=O)[C@H](Cc3ccccc3)NC(=O)[C@H](C)NC(=O)[C@H](C)NC(=O)[C@H](CC(=O)O)NC(=O)[C@H](CC(=O)O)NC1=O)NC(=O)[C@H](CC(C)(C)C)NC(=O)[C@H](CC(=O)O)NC2=O (stereo partly drawn) [I-1262, Ac-PL3-Asp-Npg-B5-Asp-Asp-Ala-Ala-Phe-Thr-S10-2C1F-BztA-Thr-NH2] | 1120 nM | 49 µM (≈ 92.7 µg/mL) | – | – |
| CC(=O)N1CCC[C@]12CC=CCCCC1(CCCC=CCCCOC(=O)N3CC[C@@](C(=O)N[C@@H](Cc4ccc5ccccc5c4)C(=O)N[C@@H](Cc4csc5ccccc45)C(=O)N[C@@H](CO)C(N)=O)(C3)NC(=O)[C@H]([C@@H](C)O)NC(=O)[C@H](Cc3ccccc3)NC(=O)[C@H](C)NC(=O)[C@H](C)NC(=O)[C@H]([C@@H](C)O)NC(=O)[C@H](CC(=O)O)NC1=O)NC(=O)[C@H](CC(C)(C)C)NC(=O)[C@H](CC(=O)O)NC2=O (stereo partly drawn) [I-1270, Ac-PL3-Asp-Npg-B5-Asp-Thr-Ala-Ala-Phe-Thr-PyrS2-2NapA-BztA-Ser-NH2] | 3700 nM | – | 10 µM (≈ 18.9 µg/mL) | – |
| CC(=O)N1CCC[C@]12CC=CCCCC1(CCCC=CCCCOC(=O)N3CC[C@@](C(=O)N[C@@H](Cc4cccc(C(F)(F)F)c4)C(=O)N[C@@H](Cc4csc5ccccc45)C(=O)N[C@@H](CO)C(N)=O)(C3)NC(=O)[C@H]([C@@H](C)O)NC(=O)[C@H](Cc3ccccc3)NC(=O)[C@H](C)NC(=O)[C@H](C)NC(=O)[C@H]([C@@H](C)O)NC(=O)[C@H](CC(=O)O)NC1=O)NC(=O)[C@H](CC(C)(C)C)NC(=O)[C@H](CC(=O)O)NC2=O (stereo partly drawn) [I-1271, Ac-PL3-Asp-Npg-B5-Asp-Thr-Ala-Ala-Phe-Thr-PyrS2-3F3MeF-BztA-Ser-NH2] | 682 nM | – | 10 µM (≈ 19.1 µg/mL) | – |
| CC(=O)N1CCC[C@]12CC=CCCCC1(CCCC=CCCCOC(=O)N3CC[C@@](C(=O)N[C@@H](Cc4ccccc4)C(=O)N[C@@H](Cc4cccc5ccccc45)C(=O)N[C@@H](CO)C(N)=O)(C3)NC(=O)[C@H]([C@@H](C)O)NC(=O)[C@H](Cc3ccccc3)NC(=O)[C@H](C)NC(=O)[C@H](C)NC(=O)[C@H]([C@@H](C)O)NC(=O)[C@H](CC(=O)O)NC1=O)NC(=O)[C@H](CC(C)(C)C)NC(=O)[C@H](CC(=O)O)NC2=O (stereo partly drawn) [I-1272, Ac-PL3-Asp-Npg-B5-Asp-Thr-Ala-Ala-Phe-Thr-PyrS2-Phe-1NapA-Ser-NH2] | 331 nM | 21 µM (≈ 38.6 µg/mL) | – | – |
| CC(=O)N1CCC[C@]12CC=CCCCC1(CCCC=CCCCOC(=O)N3CC[C@@](C(=O)N[C@@H](Cc4ccccc4)C(=O)N[C@@H](Cc4csc5ccccc45)C(=O)N[C@@H](CCC(N)=O)C(N)=O)(C3)NC(=O)[C@H](CC(C)C)NC(=O)[C@H](Cc3ccccc3)NC(=O)[C@H](C)NC(=O)[C@H](CCCCNC(C)C)NC(=O)[C@H]([C@@H](C)O)NC(=O)[C@H](CC(=O)O)NC1=O)NC(=O)[C@H](CC(C)(C)C)NC(=O)[C@H](CC(N)=O)NC2=O (stereo partly drawn) [I-1288, Ac-PL3-Asn-Npg-B5-Asp-Thr-iPrLys-Ala-Phe-Leu-PyrS2-Phe-BztA-Gln-NH2] | 1160 nM | – | 10 µM (≈ 20 µg/mL) | 1160 nM |
| CC(=O)N1CCC[C@]12CC=CCCCC1(CCCC=CCCCOC(=O)N3CC[C@@](C(=O)N[C@@H](Cc4ccccc4)C(=O)N[C@@H](Cc4csc5ccccc45)C(=O)N[C@@H](CCC(N)=O)C(N)=O)(C3)NC(=O)[C@H](CC(C)C)NC(=O)[C@H](Cc3ccccc3)NC(=O)[C@H](C)NC(=O)[C@H](C)NC(=O)[C@H]([C@@H](C)O)NC(=O)[C@H](CC(N)=O)NC1=O)NC(=O)[C@H](C)NC(=O)[C@H](CC(=O)O)NC2=O (stereo partly drawn) [I-1296, Ac-PL3-Asp-Ala-B5-Asn-Thr-Ala-Ala-Phe-Leu-PyrS2-Phe-BztA-Gln-NH2] | 3780 nM | – | 10 µM (≈ 18.4 µg/mL) | 3780 nM |
| CC(=O)N1CCC[C@]12CC=CCCCC1(CCCC=CCCCOC(=O)N3CC[C@@](C(=O)N[C@@H](Cc4ccsc4)C(=O)N[C@@H](Cc4csc5ccccc45)C(=O)N[C@H](CO)[C@@H](C)O)(C3)NC(=O)[C@H]([C@@H](C)O)NC(=O)[C@H](Cc3ccccc3)NC(=O)[C@H](C)NC(=O)[C@H](C)NC(=O)[C@H](CC(=O)O)NC(=O)[C@H](CC(=O)O)NC1=O)NC(=O)[C@H](CC(C)(C)C)NC(=O)[C@H](CC(=O)O)NC2=O (stereo partly drawn) [I-1306, Ac-PL3-Asp-Npg-B5-Asp-Asp-Ala-Ala-Phe-Thr-PyrS2-3Thi-BztA-Thro1] | 6 nM | – | 50 µM (≈ 93.3 µg/mL) | – |
| CC(=O)N1CCC[C@]12CC=CCCCC1(CCCC=CCCCOC(=O)N3CC[C@@](C(=O)N[C@@H](Cc4ccccc4Cl)C(=O)N[C@@H](Cc4csc5ccccc45)C(=O)N[C@H](CO)[C@@H](C)O)(C3)NC(=O)[C@H](CC(C)C)NC(=O)[C@H](Cc3ccccc3)NC(=O)[C@H](C)NC(=O)[C@H](C)NC(=O)[C@H](CC(=O)O)NC(=O)[C@H](CC(=O)O)NC1=O)NC(=O)[C@H](CC1CCCCC1)NC(=O)[C@H](CC(=O)O)NC2=O (stereo partly drawn) [I-1307, Ac-PL3-Asp-Cha-B5-Asp-Asp-Ala-Ala-Phe-Leu-PyrS2-2C1F-BztA-Thro1] | 21 nM | 20 µM (≈ 38.6 µg/mL) | – | – |
